Source: patent US8674113B2, “Compounds” (Boehringer Ingelheim International GmbH, priority 2010, dated 2014)

What was measured:
[1] = biological target: mPGES-1 in A549 cells (Homo sapiens (Human), UniProt O14684); experiment: A549 cell-based assay (PGE2 formation, 50% human serum); details: IL-1β 5 ng/ml, 10 nM arachidonic acid, 20-24 h, read-out: mPGES-1 inhibitory effect IC50 in the cell assay
Method in brief: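 A549 cells in F-12K with 50% human serum were stimulated 20-24 h with 5 ng/ml IL-1β and 10 nM arachidonic acid in presence of compound or vehicle. PGE2 in the cell-free medium was measured by HTRF, normalised to vehicle (100%). IC50 from 6-8 point titrations.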

[2] = biological target: recombinant human mPGES-1 (Homo sapiens (Human), UniProt O14684); experiment: mPGES-1 enzyme assay (HTRF detection of PGE2); type: biochemical; details: recombinant human mPGES-1 microsomes, PGH2 2 μM, 60 seconds; read-out: mPGES-1 inhibitory effect IC50 in the enzyme assay
recombinant human mPGES-1, sequence (O14684 whole entry): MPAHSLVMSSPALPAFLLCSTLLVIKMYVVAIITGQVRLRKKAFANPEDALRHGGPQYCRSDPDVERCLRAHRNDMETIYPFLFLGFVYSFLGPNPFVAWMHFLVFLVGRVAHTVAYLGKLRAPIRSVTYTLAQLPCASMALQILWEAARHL
Method in brief: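 Microsomes from E. coli expressing recombinant human mPGES-1 (~0.5 μg protein/well) in 0.1 M phosphate pH 7.4 with 2.5 mM GSH, pre-incubated with compound 25 min at room temperature. PGH2 (2 μM final) added, reaction stopped with FeCl2 after 60 s; PGE2 quantified by HTRF (665/620 ratio) against a calibration curve, IC50 by nonlinear regression after background subtraction.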

mPGES-1 in A549 cells, sequence (O14684 whole entry): as above

SMILES: Cn1c(Nc2c(Cl)ccc(CNC(=O)C(C)(C)F)c2Cl)nc2cc(C(=O)N[C@H]3CC[C@H](C(F)(F)F)CC3)c(N3CC[C@@H](F)C3)cc21 [Example 120]
- IC50 [1]: 1 nM
- IC50 [2]: 3 nM

SMILES: Cn1c(Nc2c(Cl)ccc(CNC(=O)C(C)(C)C)c2Cl)nc2cc(C(=O)N[C@H]3CC[C@H](C(F)(F)F)CC3)c(N3CCC4(CC4)C3)cc21 [Example 121]
- IC50 [1]: 2 nM
- IC50 [2]: 3 nM

SMILES: Cn1c(Nc2c(Cl)ccc(CNC(=O)C(C)(C)C)c2Cl)nc2cc(C(=O)N[C@H]3CC[C@H](C(F)(F)F)CC3)c(N3CC4CCC4C3)cc21 (some centres unmarked) [Example 122]
- IC50 [1]: 1 nM
- IC50 [2]: 3 nM

SMILES: Cn1c(Nc2c(Cl)ccc(CNC(=O)C(C)(C)C)c2Cl)nc2cc(C(=O)N[C@H]3CC[C@H](C(F)(F)F)CC3)c(N3C[C@H]4C[C@@H](C3)[C@H]4O)cc21 [Example 126]
- IC50 [1]: 1 nM
- IC50 [2]: 2 nM

SMILES: Cn1c(Nc2c(Cl)ccc(CNC(=O)C(C)(C)C(F)(F)F)c2Cl)nc2cc(C(=O)N[C@H]3CC[C@H](C(F)(F)F)CC3)c(N3CC[C@@H](F)C3)cc21 [Example 128]
- IC50 [1]: 1 nM
- IC50 [2]: 2 nM

SMILES: Cn1c(Nc2c(Cl)ccc(CNC(=O)C(C)(C)C)c2Cl)nc2cc(C(=O)N[C@H]3CC[C@H](C(F)(F)F)CC3)c(N3C[C@@H]4C[C@H]3CO4)cc21 [Example 129]
- IC50 [1]: 5 nM
- IC50 [2]: 3 nM

SMILES: Cn1c(Nc2c(Cl)ccc(CNC(=O)C(C)(C)C)c2Cl)nc2cc(C(=O)N[C@H]3CC[C@H](C(F)(F)F)CC3)c(N3CCS(=O)(=O)CC3)cc21 [Example 130]
- IC50 [1]: 7 nM
- IC50 [2]: 2 nM

SMILES: Cn1c(Nc2c(Cl)ccc(CNC(=O)C(C)(C)C)c2Cl)nc2cc(C(=O)N[C@H]3CC[C@H](C(F)(F)F)CC3)c(N3CCNC(C(F)(F)F)C3)cc21 (some centres unmarked) [Example 131]
- IC50 [1]: 1 nM
- IC50 [2]: 2 nM

SMILES: Cn1c(Nc2c(Cl)ccc(CNC(=O)C(C)(C)C)c2Cl)nc2cc(C(=O)N[C@H]3CC[C@H](C(F)(F)F)CC3)c(N3CCN(CC(F)(F)F)CC3)cc21 [Example 132]
- IC50 [1]: 1.5 nM
- IC50 [2]: 5 nM

SMILES: Cn1c(Nc2c(Cl)ccc(CNC(=O)C(C)(C)C)c2Cl)nc2cc(C(=O)N[C@H]3CC[C@H](C(F)(F)F)CC3)c(N3CCn4ncnc4C3)cc21 [Example 133]
- IC50 [1]: 10 nM
- IC50 [2]: 3 nM

SMILES: Cn1c(Nc2c(Cl)ccc(CNC(=O)C(C)(C)C)c2Cl)nc2cc(C(=O)N[C@H]3CC[C@H](C(F)(F)F)CC3)c(N3CC4CCC(C3)O4)cc21 [Example 134]
- IC50 [1]: < 1 nM
- IC50 [2]: 2 nM

SMILES: Cn1c(Nc2c(Cl)ccc(CNC(=O)C(C)(C)C)c2Cl)nc2cc(C(=O)NCCC(F)(F)F)c(N3CC4CC4C3)cc21 (centres unmarked) [Example 135]
- IC50 [1]: 5 nM
- IC50 [2]: 3 nM

SMILES: Cn1c(Nc2c(Cl)ccc(CNC(=O)C(C)(C)C)c2Cl)nc2cc(C(=O)Nc3ccc(OC(F)(F)F)cc3)c(N3CCCC(C(F)(F)F)C3)cc21 (centres unmarked) [Example 136]
- IC50 [1]: 1 nM
- IC50 [2]: 3 nM

SMILES: CN(CC(F)F)c1cc2c(cc1C(=O)Nc1ccc(OC(F)(F)F)cc1)nc(Nc1c(Cl)ccc(CNC(=O)C(C)(C)C)c1Cl)n2C [Example 137]
- IC50 [1]: < 1 nM
- IC50 [2]: 3 nM

SMILES: Cn1c(Nc2c(Cl)ccc(CNC(=O)C(C)(C)C)c2F)nc2cc(C(=O)Nc3ccc(OC(F)(F)F)cc3)c(N3CC[C@@H](F)C3)cc21 [Example 138]
- IC50 [1]: 3 nM
- IC50 [2]: 2 nM

SMILES: Cn1c(Nc2c(Cl)ccc(CNC(=O)C(C)(C)C)c2Cl)nc2cc(C(=O)Nc3ccc(OC(F)(F)F)cc3)c(N3CC[C@H](F)C3)cc21 [Example 139]
- IC50 [1]: < 1 nM
- IC50 [2]: 3 nM

SMILES: Cn1c(Nc2c(Cl)ccc(CNC(=O)C(C)(C)F)c2Cl)nc2cc(C(=O)Nc3ccc(OC(F)(F)F)cc3)c(N3CCC(F)(F)CC3)cc21 [Example 140]
- IC50 [1]: 5 nM
- IC50 [2]: 2 nM

SMILES: Cn1c(Nc2c(Cl)ccc(CNC(=O)C(C)(C)C)c2Cl)nc2cc(C(=O)Nc3ccc(OC(F)(F)F)cc3)c(N3CCOCC3)cc21 [Example 141]
- IC50 [1]: 1 nM
- IC50 [2]: 2 nM

SMILES: Cc1c(N2CC3CC3C2)c(C(=O)N[C@H]2CC[C@H](C(F)(F)F)CC2)cc2nc(Nc3c(Cl)ccc(CNC(=O)C(C)(C)C)c3Cl)n(C)c12 (stereo partly drawn) [Example 144, N-(trans-4-Trifluoromethyl-cyclohexyl)-2-{2,6-dichloro-3-[(2,2-dimethyl-propionylamino)-methyl]-phenylamino}-6-[3-aza-bicyclo[3.1.0]hex-3-yl]-1,7-dimethyl-1H-benzimidazole-5-carboxylic acid amide]
- IC50 [1]: 1 nM
- IC50 [2]: 5 nM

SMILES: Cn1c(Nc2c(Cl)ccc(CNC(=O)C(C)(C)C)c2Cl)nc2cc(C(=O)N[C@H]3CC[C@H](C(F)(F)F)CC3)c(N3CC[C@@H](F)C3)c(F)c21 [Example 145, (R)—N-(trans-4-Trifluoromethyl-cyclohexyl)-2-{2,6-dichloro-3-[(2,2-dimethyl-propionylamino)-methyl]-phenylamino}-6-[3-fluoro-pyrrolidinyl]-1-methyl-7-fluoro-1H-benzimidazole-5-carboxylic acid amide]
- IC50 [1]: 2.5 nM
- IC50 [2]: 3 nM

SMILES: Cn1c(Nc2c(Cl)ccc(CNC(=O)C(C)(C)F)c2Cl)nc2cc(C(=O)NCCC(F)(F)F)c(N3CCC(O)CC3)cc21 [Example 148]
- IC50 [1]: 20 nM
- IC50 [2]: 3 nM

SMILES: CN(c1cc2c(cc1C(=O)NCCC(F)(F)F)nc(Nc1c(Cl)ccc(CNC(=O)C(C)(C)F)c1Cl)n2C)C1CCC1 [Example 149]
- IC50 [1]: 3 nM
- IC50 [2]: 3 nM

SMILES: Cn1c(Nc2c(Cl)ccc(CNC(=O)C(C)(C)F)c2Cl)nc2cc(C(=O)NCCC(F)(F)F)c(N3CCCC(C(F)(F)F)C3)cc21 (centres unmarked) [Example 150]
- IC50 [1]: 2 nM
- IC50 [2]: 2 nM

SMILES: Cn1c(Nc2c(Cl)ccc(CNC(=O)C(C)(C)F)c2Cl)nc2cc(C(=O)Nc3ccc(F)c(Cl)c3)c(N3CCC(F)(F)C3)cc21 [Example 154]
- IC50 [1]: < 1 nM
- IC50 [2]: 2 nM

SMILES: Cn1c(Nc2c(Cl)ccc(CNC(=O)C3(C)CC3)c2Cl)nc2cc(C(=O)Nc3ccc(OC(F)(F)F)cc3)c(N3CC[C@@H](F)C3)cc21 [Example 156]
- IC50 [1]: 2 nM
- IC50 [2]: 2 nM

SMILES: Cc1nc(C(F)(F)F)c(CNC(=O)c2cc3nc(Nc4c(Cl)ccc(CNC(=O)C(C)(C)C)c4Cl)n(C)c3cc2N2CCC(C(F)(F)F)CC2)s1 [Example 158]
- IC50 [1]: 4 nM
- IC50 [2]: 4 nM

SMILES: Cn1c(Nc2c(Cl)ccc(CNC(=O)C(C)(C)C)c2Cl)nc2cc(C(=O)Nc3cc(C(C)(C)C)on3)c(N3CCC(C(F)(F)F)CC3)cc21 [Example 159]
- IC50 [1]: 4 nM
- IC50 [2]: 3 nM

SMILES: Cn1c(Nc2c(Cl)ccc(CNC(=O)C(C)(C)C)c2Cl)nc2cc(C(=O)Nc3cc(C(C)(C)CO)no3)c(N3CCC(C(F)(F)F)CC3)cc21 [Example 160]
- IC50 [1]: 3 nM
- IC50 [2]: 4 nM

SMILES: Cn1c(Nc2c(Cl)ccc(CNC(=O)C(C)(C)C)c2Cl)nc2cc(C(=O)Nc3nc(C(F)(F)F)cs3)c(N3CCC(C(F)(F)F)CC3)cc21 [Example 161]
- IC50 [1]: 3 nM
- IC50 [2]: 3 nM

SMILES: Cn1c(Nc2c(Cl)ccc(CNC(=O)C(C)(C)C)c2Cl)nc2cc(C(=O)Nc3nnc(C(C)(C)C)s3)c(N3CCC(C(F)(F)F)CC3)cc21 [Example 162]
- IC50 [1]: 2 nM
- IC50 [2]: 3 nM

SMILES: CC(C)(C)C(=O)NCc1ccc(Cl)c(Nc2nc3cc(C(=O)N[C@H]4CC[C@H](C(F)(F)F)CC4)c(N4CC5CC5C4)cc3n2C2(C(C)(C)O)CC2)c1Cl (some centres unmarked) [Example 164]
- IC50 [1]: 7 nM
- IC50 [2]: 4 nM

SMILES: CC(C)(O)Cn1c(Nc2c(Cl)ccc(CNC(=O)C(C)(C)C)c2Cl)nc2cc(C(=O)N[C@H]3CC[C@H](C(F)(F)F)CC3)c(N3CCC(C(F)(F)F)CC3)cc21 [Example 165]
- IC50 [1]: 3 nM
- IC50 [2]: 2 nM

SMILES: CC(C)(O)Cn1c(Nc2c(Cl)ccc(CNC(=O)C(C)(C)C)c2Cl)nc2cc(C(=O)Nc3ccc(OC(F)(F)F)cc3)c(N3CCOCC3)cc21 [Example 166, N-(4-Trifluoromethoxy-phenyl)-2-{2,6-dichloro-3-[(2,2-dimethyl-propionylamino)-methyl]-phenylamino}-6-[morpholinyl]-1-(2-hydroxy-2-methyl-propyl)-1H-benzimidazole-5-carboxylic acid amide]
- IC50 [1]: 12 nM
- IC50 [2]: 2 nM

SMILES: Cn1c(Nc2c(Cl)ccc(CNC(=O)c3ccc(O)cc3F)c2Cl)nc2cc(C(=O)NCCC(F)(F)F)c(N3CCC(C(F)(F)F)CC3)cc21 [Example 173]
- IC50 [1]: 2 nM
- IC50 [2]: 2 nM

SMILES: Cn1c(Nc2c(Cl)ccc(CNC(=O)C(C)(C)CO)c2Cl)nc2cc(C(=O)NCCC(F)(F)F)c(N3CCC(C(F)(F)F)CC3)cc21 [Example 175]
- IC50 [1]: 7 nM
- IC50 [2]: 4 nM

SMILES: Cn1c(Nc2c(Cl)ccc(CNC(=O)c3c(N)cccc3Cl)c2Cl)nc2cc(C(=O)NCCC(F)(F)F)c(N3CCC(C(F)(F)F)CC3)cc21 [Example 176]
- IC50 [1]: 34 nM
- IC50 [2]: 4 nM

SMILES: Cn1c(Nc2c(Cl)ccc(CNC(=O)c3ccc(N)cc3Cl)c2Cl)nc2cc(C(=O)NCCC(F)(F)F)c(N3CCC(C(F)(F)F)CC3)cc21 [Example 177]
- IC50 [1]: 3 nM
- IC50 [2]: 2 nM

SMILES: Cn1c(Nc2c(Cl)ccc(CNC(=O)c3cccc(O)c3)c2Cl)nc2cc(C(=O)NCCC(F)(F)F)c(N3CCC(C(F)(F)F)CC3)cc21 [Example 178]
- IC50 [1]: 28 nM
- IC50 [2]: 5 nM

SMILES: Cn1c(Nc2c(Cl)ccc(CNC(=O)c3c(O)cccc3F)c2Cl)nc2cc(C(=O)NCCC(F)(F)F)c(N3CCC(C(F)(F)F)CC3)cc21 [Example 179]
- IC50 [1]: > 100 nM
- IC50 [2]: 2 nM

SMILES: Cn1c(Nc2c(Cl)ccc(CNC(=O)c3nccs3)c2Cl)nc2cc(C(=O)NCCC(F)(F)F)c(N3CCC(C(F)(F)F)CC3)cc21 [Example 182]
- IC50 [1]: 7 nM
- IC50 [2]: 2 nM
